Measured values published in patent US20170233413A1, “SUBSTITUTED ANNULATED PYRIMIDINES AND USE THEREOF” (Bayer Pharma Aktiengesellschaft, priority 2014, published 2017).
pIC50: −log10 of the molar value.

Assays:
[1] = target: T1, human phosphodiesterase 5 (PDE 5) (Homo sapiens, UniProt O76074); assay: Inhibition of human phosphodiesterase 5 (PDE 5); type: biochemical; conditions: PDE 5 preparation from human platelets; in some cases means of individual determinations
T1 construct: PDE 5 preparations are obtained from human platelets by disruption; from tissue; host or cells: human platelets
Procedure, shortened: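 Enzyme partially purified from human platelets by Mono Q ion exchange, diluted so that under 70% of substrate converts. [8-3H]cGMP at 0.025 μCi per well in Tris pH 7.5 with MgCl2/EDTA, 60 min at room temperature, yttrium SPA bead read-out. Final compound concentrations 4–0.0018 μM; IC50 from concentration–inhibition plot.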

[2] = target: T2, recombinant guanylate cyclase reporter cell line (Rattus norvegicus, UniProt P19686+P20595); assay: Effect on a recombinant guanylate cyclase reporter cell line; type: cell-based; conditions: MEC = minimum effective concentration; in some cases means of individual determinations
T2 construct: expressed in transfected cells
T2 sequence (P19686 1-690): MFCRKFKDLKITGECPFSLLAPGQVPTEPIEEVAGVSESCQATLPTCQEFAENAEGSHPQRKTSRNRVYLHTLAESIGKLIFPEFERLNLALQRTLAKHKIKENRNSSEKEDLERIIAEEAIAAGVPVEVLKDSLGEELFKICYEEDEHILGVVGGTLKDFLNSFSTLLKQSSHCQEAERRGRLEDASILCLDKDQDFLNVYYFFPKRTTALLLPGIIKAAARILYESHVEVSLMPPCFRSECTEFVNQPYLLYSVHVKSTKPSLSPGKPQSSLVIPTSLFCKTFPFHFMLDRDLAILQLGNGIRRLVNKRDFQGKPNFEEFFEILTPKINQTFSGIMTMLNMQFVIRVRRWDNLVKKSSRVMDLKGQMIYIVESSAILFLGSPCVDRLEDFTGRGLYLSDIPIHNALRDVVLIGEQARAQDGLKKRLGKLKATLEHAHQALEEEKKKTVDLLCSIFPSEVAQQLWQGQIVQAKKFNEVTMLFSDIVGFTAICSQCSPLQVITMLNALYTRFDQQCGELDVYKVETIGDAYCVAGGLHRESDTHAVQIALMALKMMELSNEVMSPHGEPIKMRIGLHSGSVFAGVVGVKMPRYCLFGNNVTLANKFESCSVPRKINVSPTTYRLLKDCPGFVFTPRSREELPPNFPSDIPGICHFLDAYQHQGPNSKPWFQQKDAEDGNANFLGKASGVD
T2 sequence (P20595 1-619): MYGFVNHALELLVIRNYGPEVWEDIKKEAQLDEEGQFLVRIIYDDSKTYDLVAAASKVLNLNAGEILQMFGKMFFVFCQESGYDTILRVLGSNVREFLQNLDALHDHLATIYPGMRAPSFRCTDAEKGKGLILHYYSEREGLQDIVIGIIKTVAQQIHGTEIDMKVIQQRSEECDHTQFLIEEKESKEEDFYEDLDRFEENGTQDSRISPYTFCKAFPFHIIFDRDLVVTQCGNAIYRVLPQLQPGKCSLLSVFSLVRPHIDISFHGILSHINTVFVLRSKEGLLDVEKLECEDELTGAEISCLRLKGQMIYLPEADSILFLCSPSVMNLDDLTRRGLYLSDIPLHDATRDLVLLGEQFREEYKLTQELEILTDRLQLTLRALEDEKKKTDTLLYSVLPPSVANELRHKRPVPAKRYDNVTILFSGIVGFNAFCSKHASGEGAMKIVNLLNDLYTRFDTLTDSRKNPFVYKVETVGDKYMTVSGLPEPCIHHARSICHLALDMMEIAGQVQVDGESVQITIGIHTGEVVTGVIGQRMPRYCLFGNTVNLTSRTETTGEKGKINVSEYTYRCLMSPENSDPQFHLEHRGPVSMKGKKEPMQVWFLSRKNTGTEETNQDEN
Procedure, shortened: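 Cellular activity measured in a recombinant rat soluble guanylate cyclase reporter cell line. Values are minimum effective concentration (MEC), some given as means of individual determinations.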

SMILES	pIC50 [1]	MEC [2] [µM]
Cc1nc2c(cc1F)c(-c1nc3c(c(C(N)=O)n1)C(C)(C(F)(F)F)C(=O)N3)nn2Cc1c(F)ccc(F)c1F (single isomer, unassigned; ent-2) [Example 16, ent-2-[5-Fluoro-6-methyl-1-(2,3,6-trifluorobenzyl)-1H-pyrazolo[3,4-b]pyridin-3-yl]-5-methyl-6-oxo-5-(trifluoromethyl)-6,7-dihydro-5H-pyrrolo[2,3-d]pyrimidine-4-carboxamide (enantiomer A)]	6.77	0.17
CC1(C)C(=O)Nc2nc(-c3nn(Cc4ccccc4F)c4cc(Cl)ccc34)nc(C(=O)NCC(F)(F)F)c21 [Example 44]	6.96	0.3
CC1(C)C(=O)Nc2nc(-c3nn(Cc4ccccc4F)c4ncccc34)nc(C(=O)NCc3ccccc3)c21 [Example 115, N-benzyl-2-[1-(2-fluorobenzyl)-1H-pyrazolo[3,4-b]pyridin-3-yl]-5,5-dimethyl-6-oxo-6,7-dihydro-5H-pyrrolo[2,3-d]pyrimidine-4-carboxamide]	7.39	0.1
CC1(C)C(=O)Nc2nc(-c3nn(Cc4ccccc4F)c4ncc(F)cc34)nc(C(=O)NCCC(F)(F)F)c21 [Example 51]	7.06	0.1
CC1(C)C(=O)Nc2nc(-c3nn(Cc4ccccc4F)c4ncccc34)nc(C(=O)NCCSC(F)(F)F)c21 [Example 73, 2-[1-(2-fluorobenzyl)-1H-pyrazolo[3,4-b]pyridin-3-yl]-5,5-dimethyl-6-oxo-N-{2-[(trifluoromethyl)sulfanyl]ethyl}-6,7-dihydro-5H-pyrrolo[2,3-d]pyrimidine-4-carboxamide]	7.28	0.3
CC1(C)C(=O)Nc2nc(-c3nn(Cc4ccccc4F)c4ncccc34)nc(C(=O)Nc3cc(F)cc(F)c3)c21 [Example 76, N-(3,5-difluorophenyl)-2-[1-(2-fluorobenzyl)-1H-pyrazolo[3,4-b]pyridin-3-yl]-5,5-dimethyl-6-oxo-6,7-dihydro-5H-pyrrolo[2,3-d]pyrimidine-4-carboxamide]	7.22	1
CC1(C)C(=O)Nc2nc(-c3nn(Cc4ccccc4F)c4cc(Cl)ccc34)nc(C(=O)NCC3CC3)c21 [Example 42, 2-[6-Chloro-1-(2-fluorobenzyl)-1H-indazol-3-yl]-N-(cyclopropylmethyl)-5,5-dimethyl-6-oxo-6,7-dihydro-5H-pyrrolo[2,3-d]pyrimidine-4-carboxamide]	7.13	0.3
Cn1cnc(NC(=O)c2nc(-c3nn(Cc4ccccc4F)c4ncccc34)nc3c2C(C)(C)C(=O)N3)n1 [Example 109, 2-[1-(2-fluorobenzyl)-1H-pyrazolo[3,4-b]pyridin-3-yl]-5,5-dimethyl-N-(1-methyl-1H-1,2,4-triazol-3-yl)-6-oxo-6,7-dihydro-5H-pyrrolo[2,3-d]pyrimidine-4-carboxamide]	7.41	0.3
COCCNC(=O)c1nc(-c2nn(Cc3ncccc3F)c3ncc(F)cc23)nc2c1C(C)(C)C(=O)N2 [Example 36]	7.14	3
CN(CC1CC1)C(=O)c1nc(-c2nn(Cc3ccccc3F)c3ncccc23)nc2c1C(C)(C)C(=O)N2 [Example 111, N-(cyclopropylmethyl)-2-[1-(2-fluorobenzyl)-1H-pyrazolo[3,4-b]pyridin-3-yl]-N,5,5-trimethyl-6-oxo-6,7-dihydro-5H-pyrrolo[2,3-d]pyrimidine-4-carboxamide]	6.15	0.01
CC1(C)C(=O)Nc2nc(-c3nn(Cc4ncccc4F)c4ncc(F)cc34)nc(C(=O)NC(C3CC3)C3CC3)c21 [Example 34]	7.11	1
Cc1nc2c(cc1F)c(-c1nc3c(c(C(=O)N(C)CCO)n1)C(C)(C)C(=O)N3)nn2Cc1cccc(F)c1F [Example 40]	6.62	0.03

The next compounds have a higher pIC50 [1] than those just listed; values first:

pIC50 [1]	MEC [2] [µM]	SMILES
7.47	0.3	Cc1nc2c(cc1F)c(-c1nc3c(c(C(=O)NC(C4CC4)C4CC4)n1)C(C)(C)C(=O)N3)nn2Cc1cccc(F)c1F [Example 39]
8.07	0.1	CC1(C)C(=O)Nc2nc(-c3nn(Cc4ccccc4F)c4ncccc34)nc(C(=O)NC3(C4CC4)CC3)c21 [Example 82, N-[1,1′-bi(cyclopropyl)-1-yl]-2-[1-(2-fluorobenzyl)-1H-pyrazolo[3,4-b]pyridin-3-yl]-5,5-dimethyl-6-oxo-6,7-dihydro-5H-pyrrolo[2,3-d]pyrimidine-4-carboxamide]
7.96	0.1	CCC(C)NC(=O)c1nc(-c2nn(Cc3ccccc3F)c3ncccc23)nc2c1C(C)(C)C(=O)N2 (racemic) [Example 63, rac-N-(butan-2-yl)-2-[1-(2-fluorobenzyl)-1H-pyrazolo[3,4-b]pyridin-3-yl]-5,5-dimethyl-6-oxo-6,7-dihydro-5H-pyrrolo[2,3-d]pyrimidine-4-carboxamide]
7.60	0.3	CC1(C)C(=O)Nc2nc(-c3nn(Cc4ccccc4F)c4ncccc34)nc(C(=O)Nc3cnccn3)c21 [Example 108, 2-[1-(2-fluorobenzyl)-1H-pyrazolo[3,4-b]pyridin-3-yl]-5,5-dimethyl-6-oxo-N-(pyrazin-2-yl)-6,7-dihydro-5H-pyrrolo[2,3-d]pyrimidine-4-carboxamide]
7.70	0.1	CC(C)CNC(=O)c1nc(-c2nn(Cc3ccccc3F)c3ncccc23)nc2c1C(C)(C)C(=O)N2 [Example 122, 2-[1-(2-fluorobenzyl)-1H-pyrazolo[3,4-b]pyridin-3-yl]-5,5-dimethyl-N-(2-methylpropyl)-6-oxo-6,7-dihydro-5H-pyrrolo[2,3-d]pyrimidine-4-carboxamide]
8.09	0.3	CC1(NC(=O)c2nc(-c3nn(Cc4ccccc4F)c4ncccc34)nc3c2C(C)(C)C(=O)N3)CCC1 [Example 97, 2-[1-(2-fluorobenzyl)-1H-pyrazolo[3,4-b]pyridin-3-yl]-5,5-dimethyl-N-(1-methylcyclobutyl)-6-oxo-6,7-dihydro-5H-pyrrolo[2,3-d]pyrimidine-4-carboxamide]
7.68	1	CC1(C)C(=O)Nc2nc(-c3nn(Cc4ccccc4F)c4ncccc34)nc(C(=O)NCC3(O)CC3)c21 [Example 138, 2-[1-(2-fluorobenzyl)-1H-pyrazolo[3,4-b]pyridin-3-yl]-N-[(1-hydroxycyclopropyl)methyl]-5,5-dimethyl-6-oxo-6,7-dihydro-5H-pyrrolo[2,3-d]pyrimidine-4-carboxamide]
7.74	0.1	C=CCONC(=O)c1nc(-c2nn(Cc3ccccc3F)c3ncccc23)nc2c1C(C)(C)C(=O)N2 [Example 62, 2-[1-(2-fluorobenzyl)-1H-pyrazolo[3,4-b]pyridin-3-yl]-5,5-dimethyl-6-oxo-N-(prop-2-en-1-yloxy)-6,7-dihydro-5H-pyrrolo[2,3-d]pyrimidine-4-carboxamide]
8.00	0.3	Cc1ccncc1NC(=O)c1nc(-c2nn(Cc3ccccc3F)c3ncccc23)nc2c1C(C)(C)C(=O)N2 [Example 119, 2-[1-(2-fluorobenzyl)-1H-pyrazolo[3,4-b]pyridin-3-yl]-5,5-dimethyl-N-(4-methylpyridin-3-yl)-6-oxo-6,7-dihydro-5H-pyrrolo[2,3-d]pyrimidine-4-carboxamide]
7.85	0.1	COCCCNC(=O)c1nc(-c2nn(Cc3ccccc3F)c3ncccc23)nc2c1C(C)(C)C(=O)N2 [Example 90, 2-[1-(2-fluorobenzyl)-1H-pyrazolo[3,4-b]pyridin-3-yl]-N-(3-methoxypropyl)-5,5-dimethyl-6-oxo-6,7-dihydro-5H-pyrrolo[2,3-d]pyrimidine-4-carboxamide]
